Measurements taken from patent US20180273482A1, “COMPOSITIONS AND METHODS FOR INCREASING, OR PREVENTING OR REVERSING LOSS OF, SKIN PIGMENTATION IN A MAMMALIAN SUBJECT” (THE TRUSTEES OF THE UNIVERSITY OF PENNSYLVANIA, priority 2015, published 2018).

System: C57BL/6 mice ear skin
Test: Topical G-1 treatment of mouse ear skin
Assay type: in vivo
Details: 2% G-1 topical, 3 weeks
Description: 2×10^5 melanocytes were seeded uniformly on 6-well tissue culture plates. […] For tissue melanin assays, tissue was weighed prior to boiling in 1M NaOH for 20 minutes.
2% (w/v) G-1 was prepared in DMSO. 20 μL of this solution was applied daily to the right ear, with vehicle only applied to the left ear, of 4-week-old C57BL/6 mice. These studies were performed without inclusion/exclusion criteria, randomization, or blinding. Based on a two-fold anticipated effect, this experiment was performed with 3 biological replicates.

CC(=O)c1ccc2c(c1)[C@@H]1C=CC[C@@H]1[C@H](c1cc3c(cc1Br)OCO3)N2 (racemic) [G-1, rel-1-[4-(6-bromo-1,3-benzodioxol-5-yl)-3aR,4S,5,9bS-tetrahydro-3H-cyclopenta[c]quinolin-8-yl]-ethanone]
pigment in treated ears compared to vehicle: increased pigment | melanin content of treated tissue vs controls (right ear, whole ear tissue melanin assay): 1.6 fold
